Measurements from patent US20070128217A1 (priority 2003, published 2007).

What was measured:
[1] = system: antibodies in sera from SARS patients (sera 1a, 1b, 2, 6, 37, 62, London, SARS-yellow, SARS-green); format: binding, human; parameters: Binding of serum 6 to linear peptides of protein X1 of SARS-CoV Urbani / Binding of serum 37 to linear peptides of protein X1 of SARS-CoV Urbani / Binding of serum 6 to looped/cyclic peptide (PEPSCAN-ELISA) / Binding of serum 37 to looped/cyclic peptide (PEPSCAN-ELISA) / Binding of serum 37 to looped/cyclic peptides of protein X1 of SARS-CoV Urbani / Binding of serum 6 to linear peptides of protein X2 / Binding of serum 37 to linear peptides of protein X2 / Binding of serum 37 to looped/cyclic peptides of protein X2 of SARS-CoV Urbani / Binding of serum 6 to linear peptides of protein M of SARS-CoV Urbani / Binding of serum 37 to linear peptides of protein M of SARS-CoV Urbani / Binding of serum 6 to looped/cyclic peptides of protein M of SARS-CoV Urbani / Binding of serum 37 to looped/cyclic peptides of protein M of SARS-CoV Urbani / Binding of serum 6 to linear peptides of protein X3 of SARS-CoV Urbani / Binding of serum 37 to linear peptides of protein X3 of SARS-CoV Urbani / Binding of serum 37 to looped/cyclic peptides of protein X3 of SARS-CoV Urbani / Binding of serum 6 to linear peptides of protein X4 of SARS-CoV Urbani / Binding of serum 37 to linear peptides of protein X4 of SARS-CoV Urbani / Binding of serum 37 to looped/cyclic peptides of protein X4 of SARS-CoV Urbani / Binding of serum 6 to linear peptides of protein X5 of SARS-CoV Urbani / Binding of serum 37 to linear peptides of protein X5 of SARS-CoV Urbani / Binding of serum 37 to looped/cyclic peptides of protein X5 of SARS-CoV Urbani / Binding of serum 6 to linear peptides of protein N of SARS-CoV Urbani / Binding of serum 37 to linear peptides of protein N of SARS-CoV Urbani / Binding of serum 6 to linear peptide (PEPSCAN-ELISA) / Binding of serum 1a to looped/cyclic peptides of protein N of SARS-CoV Urbani / Binding of serum 1b to looped/cyclic peptides of protein N of SARS-CoV Urbani / Binding of serum 2 to looped/cyclic peptides of protein N of SARS-CoV Urbani / Binding of serum 6 to looped/cyclic peptides of protein N of SARS-CoV Urbani / Binding of serum 37 to looped/cyclic peptides of protein N of SARS-CoV Urbani / Binding of serum 62 to looped/cyclic peptides of protein N of SARS-CoV Urbani / Binding of serum London to looped/cyclic peptides of protein N of SARS-CoV Urbani / Binding of serum SARS-green to looped/cyclic peptides of protein N of SARS-CoV Urbani: unit not given here
[2] = system: control sera (pooled serum of ten healthy LUMC hospital workers; commercial negative donor pooled serum from the Dutch bloodbank); format: binding, human; parameters: Binding of Control serum LUMC to linear peptides / Binding of Control serum Blood-bank to linear peptides / Binding of Control serum LUMC to looped peptides / Binding of Control Serum Blood-Bank to Looped peptides / Binding of Control serum LUMC to linear peptides of the protein M of SARS-CoV Urbani / Binding of Control serum Blood-bank to linear peptides of the protein M of SARS-CoV Urbani / Binding of Control serum LUMC to looped peptides of the protein M of SARS-CoV Urbani / Binding of Control Serum Blood-Bank to Looped peptides of the protein M of SARS-CoV Urbani: unit not given here
[3] = system: rabbit serum obtained by immunizing a rabbit with the SARS-CoV strain Frankfurt 1; format: binding; parameters: Binding of a rabbit serum to linear peptides / Binding of a rabbit serum to looped peptides / Rabbit serum linear peptides / Rabbit serum looped peptides / Binding of a rabbit serum to linear peptides of protein N of SARS-CoV Urbani (Rabbit serum linear peptides) / Binding of a rabbit serum to looped/cyclic peptides of protein N of SARS-CoV Urbani (Rabbit serum looped peptides): unit not given here

Sequence: GTDSGFAAYNRYRIG
- Binding of serum 1a to linear peptides of protein M of SARS-CoV Urbani [1]: 0.6
- Binding of serum 1a to looped/cyclic peptides of protein M of SARS-CoV Urbani [1]: 0.8
- Binding of serum 1b to linear peptides of protein M of SARS-CoV Urbani [1]: 0.4
- Binding of serum 1b to looped/cyclic peptides of protein M of SARS-CoV Urbani [1]: 0.5
- Binding of serum 2 to linear peptides of protein M of SARS-CoV Urbani [1]: 0.4
- Binding of serum 2 to looped/cyclic peptides of protein M of SARS-CoV Urbani [1]: 0.6
- Binding of serum 6 to linear peptides of protein M of SARS-CoV Urbani [1]: 0.7
- Binding of serum 6 to looped/cyclic peptides of protein M of SARS-CoV Urbani [1]: 0.8
- Binding of serum 37 to linear peptides of protein M of SARS-CoV Urbani [1]: 0.6
- Binding of serum 37 to looped/cyclic peptides of protein M of SARS-CoV Urbani [1]: 0.7
- Binding of serum 62 to linear peptides of protein M of SARS-CoV Urbani [1]: 0.5
- Binding of serum 62 to looped/cyclic peptides of protein M of SARS-CoV Urbani [1]: 0.6
- Binding of serum London to linear peptides of protein M of SARS-CoV Urbani [1]: 0.3
- Binding of serum London to looped/cyclic peptides of protein M of SARS-CoV Urbani [1]: 0.3
- Binding of serum SARS-green to linear peptides of protein M of SARS-CoV Urbani [1]: 0.4
- Binding of serum SARS-green to looped/cyclic peptides of protein M of SARS-CoV Urbani [1]: 0.4
- Binding of serum SARS-yellow to linear peptides of protein M of SARS-CoV Urbani [1]: 0.2
- Binding of serum SARS-yellow to looped/cyclic peptides of protein M of SARS-CoV Urbani [1]: 0.9
- Binding of Control Serum Blood-Bank to Looped peptides of the protein M of SARS-CoV Urbani [2]: 0.6
- Binding of Control serum Blood-bank to linear peptides of the protein M of SARS-CoV Urbani [2]: 0.7
- Binding of Control serum LUMC to linear peptides of the protein M of SARS-CoV Urbani [2]: 0.5
- Binding of Control serum LUMC to looped peptides of the protein M of SARS-CoV Urbani [2]: 0.7
- Rabbit serum linear peptides [3]: 0.2
- Rabbit serum looped peptides [3]: 0.4

Sequence: HGYFTEVYYQLESTQ
- Binding of serum 1a to linear peptides of protein X1 of SARS-CoV Urbani [1]: 0.6
- Binding of serum 1a to looped/cyclic peptides of protein X1 of SARS-CoV Urbani [1]: 0.5
- Binding of serum 1b to linear peptides of protein X1 of SARS-CoV Urbani [1]: 0.4
- Binding of serum 1b to looped/cyclic peptides of protein X1 of SARS-CoV Urbani [1]: 0.4
- Binding of serum 2 to linear peptides of protein X1 of SARS-CoV Urbani [1]: 0.4
- Binding of serum 2 to looped/cyclic peptides of protein X1 of SARS-CoV Urbani [1]: 0.4
- Binding of serum 6 to linear peptides of protein X1 of SARS-CoV Urbani [1]: 0.3
- Binding of serum 6 to looped/cyclic peptides of protein X1 of SARS-CoV Urbani [1]: 0.3
- Binding of serum 37 to linear peptides of protein X1 of SARS-CoV Urbani [1]: 0.4
- Binding of serum 37 to looped/cyclic peptides of protein X1 of SARS-CoV Urbani [1]: 0.5
- Binding of serum 62 to linear peptides of protein X1 of SARS-CoV Urbani [1]: 0.4
- Binding of serum 62 to looped/cyclic peptides of protein X1 of SARS-CoV Urbani [1]: 0.5
- Binding of serum London to linear peptides of protein X1 of SARS-CoV Urbani [1]: 0.2
- Binding of serum London to looped/cyclic peptides of protein X1 of SARS-CoV Urbani [1]: 0.2
- Binding of serum SARS-green to linear peptides of protein X1 of SARS-CoV Urbani [1]: 0.2
- Binding of serum SARS-green to looped/cyclic peptides of protein X1 of SARS-CoV Urbani [1]: 0.3
- Binding of serum SARS-yellow to linear peptides of protein X1 of SARS-CoV Urbani [1]: 0.0
- Binding of serum SARS-yellow to looped/cyclic peptides of protein X1 of SARS-CoV Urbani [1]: 0.4
- Binding of Control Serum Blood-Bank to Looped peptides [2]: 0.5
- Binding of Control serum Blood-bank to linear peptides [2]: 0.4
- Binding of Control serum LUMC to linear peptides [2]: 0.3
- Binding of Control serum LUMC to looped peptides [2]: 0.5
- Binding of a rabbit serum to linear peptides [3]: 0.1
- Binding of a rabbit serum to looped peptides [3]: 0.5

Sequence: HITMTTVYHITVSQI
- Binding of serum 1a to linear peptides of protein X2 [1]: 0.6
- Binding of serum 1a to looped/cyclic peptides of protein X2 of SARS-CoV Urbani [1]: 0.6
- Binding of serum 1b to linear peptides of protein X2 [1]: 0.6
- Binding of serum 1b to looped/cyclic peptides of protein X2 of SARS-CoV Urbani [1]: 0.6
- Binding of serum 2 to linear peptides of protein X2 [1]: 0.5
- Binding of serum 2 to looped/cyclic peptides of protein X2 of SARS-CoV Urbani [1]: 0.3
- Binding of serum 6 to linear peptides of protein X2 [1]: 0.4
- Binding of serum 6 to looped/cyclic peptides of protein X2 of SARS-CoV Urbani [1]: 0.3
- Binding of serum 37 to linear peptides of protein X2 [1]: 0.6
- Binding of serum 37 to looped/cyclic peptides of protein X2 of SARS-CoV Urbani [1]: 0.6
- Binding of serum 62 to linear peptides of protein X2 [1]: 0.3
- Binding of serum 62 to looped/cyclic peptides of protein X2 of SARS-CoV Urbani [1]: 0.7
- Binding of serum London to linear peptides of protein X2 [1]: 0.4
- Binding of serum London to looped/cyclic peptides of protein X2 of SARS-CoV Urbani [1]: 0.2
- Binding of serum SARS-green to linear peptides of protein X2 [1]: 0.2
- Binding of serum SARS-green to looped/cyclic peptides of protein X2 of SARS-CoV Urbani [1]: 0.4
- Binding of serum SARS-yellow to linear peptides of protein X2 [1]: 0.7
- Binding of serum SARS-yellow to looped/cyclic peptides of protein X2 of SARS-CoV Urbani [1]: 0.5
- Binding of Control Serum Blood-Bank to Looped peptides [2]: 0.7
- Binding of Control serum Blood-bank to linear peptides [2]: 0.5
- Binding of Control serum LUMC to linear peptides [2]: 0.5
- Binding of Control serum LUMC to looped peptides [2]: 0.6
- Binding of a rabbit serum to linear peptides [3]: 0.7
- Binding of a rabbit serum to looped peptides [3]: 0.4

Sequence: HKKVSTNLCTHSFRK
- Binding of serum 1a to looped/cyclic peptides of protein X2 of SARS-CoV Urbani [1]: 0.6
- Binding of serum 1b to looped/cyclic peptides of protein X2 of SARS-CoV Urbani [1]: 0.4
- Binding of serum 2 to looped/cyclic peptides of protein X2 of SARS-CoV Urbani [1]: 0.8
- Binding of serum 6 to looped/cyclic peptides of protein X2 of SARS-CoV Urbani [1]: 0.6
- Binding of serum 37 to looped/cyclic peptides of protein X2 of SARS-CoV Urbani [1]: 0.5
- Binding of serum 62 to looped/cyclic peptides of protein X2 of SARS-CoV Urbani [1]: 0.7
- Binding of serum London to looped/cyclic peptides of protein X2 of SARS-CoV Urbani [1]: 0.3
- Binding of serum SARS-green to looped/cyclic peptides of protein X2 of SARS-CoV Urbani [1]: 0.3
- Binding of serum SARS-yellow to looped/cyclic peptides of protein X2 of SARS-CoV Urbani [1]: 0.6
- Recognition of the peptide by sera of SARS-CoV infected individuals, and form (linear, looped/cyclic) in which it is recognized [1]: recognized in linear form
- Binding of Control Serum Blood-Bank to Looped peptides [2]: 0.5
- Binding of Control serum Blood-bank to linear peptides [2]: 0.8
- Binding of Control serum LUMC to linear peptides [2]: 0.9
- Binding of Control serum LUMC to looped peptides [2]: 0.8
- Binding of a rabbit serum to linear peptides [3]: 0.4
- Binding of a rabbit serum to looped peptides [3]: 0.1

Sequence: HLLLVAAGMEAQFLY
- Binding of serum 1a to linear peptides of protein X1 of SARS-CoV Urbani [1]: 0.9
- Binding of serum 1a to looped/cyclic peptide (PEPSCAN-ELISA) [1]: 0.5
- Binding of serum 1b to linear peptides of protein X1 of SARS-CoV Urbani [1]: 0.7
- Binding of serum 1b to looped/cyclic peptide (PEPSCAN-ELISA) [1]: 0.6
- Binding of serum 2 to linear peptides of protein X1 of SARS-CoV Urbani [1]: 0.6
- Binding of serum 2 to looped/cyclic peptide (PEPSCAN-ELISA) [1]: 0.6
- Binding of serum 6 to linear peptides of protein X1 of SARS-CoV Urbani [1]: 0.5
- Binding of serum 6 to looped/cyclic peptide (PEPSCAN-ELISA) [1]: 0.1
- Binding of serum 37 to linear peptides of protein X1 of SARS-CoV Urbani [1]: 0.7
- Binding of serum 37 to looped/cyclic peptide (PEPSCAN-ELISA) [1]: 0.6
- Binding of serum 62 to linear peptides of protein X1 of SARS-CoV Urbani [1]: 0.7
- Binding of serum 62 to looped/cyclic peptide (PEPSCAN-ELISA) [1]: 0.6
- Binding of serum London to linear peptides of protein X1 of SARS-CoV Urbani [1]: 0.3
- Binding of serum London to looped/cyclic peptide (PEPSCAN-ELISA) [1]: 0.2
- Binding of serum SARS-green to linear peptides of protein X1 of SARS-CoV Urbani [1]: 0.2
- Binding of serum SARS-green to looped/cyclic peptide (PEPSCAN-ELISA) [1]: 0.4
- Binding of serum SARS-yellow to linear peptides of protein X1 of SARS-CoV Urbani [1]: 0.6
- Binding of serum SARS-yellow to looped/cyclic peptide (PEPSCAN-ELISA) [1]: 0.3
- Binding of Control Serum Blood-Bank to Looped peptides [2]: 0.6
- Binding of Control serum Blood-bank to linear peptides [2]: 0.6
- Binding of Control serum LUMC to linear peptides [2]: 0.7
- Binding of Control serum LUMC to looped peptides [2]: 0.4
- Binding of a rabbit serum to linear peptides [3]: 0.5
- Binding of a rabbit serum to looped peptides [3]: 0.4
